# In US20110070552A1, “USE OF SECONDARY OPTICAL EMISSION AS A NOVEL BIOFILM TARGETING TECHNOLOGY” (NOMIR MEDICAL TECHNOLOGIES INC, priority 2003, published 2011):
# Tests used:
# Assay type in all cases: in vivo, human
# [1] = tested on: biofilm and infection around titanium implant; assay: Treatment of infected periimplant tissue: chromophore staining plus 830 nm diode laser hot tip
# Excerpt: (§1) The laser used to exemplify the invention was a 830 nm diode laser with a power output of between 800 mW-1200 mW in the Continuous Wave mode of operation, through a 600 micron silica laser delivery fiber. The live human patients (in vivo) all presented with some advanced state of periodontal or periimplant disease and/or active infection. Presented below are data for two representative patients.
# Presented as a brittle diabetic with an infected titanium implant and a fistula draining the infection. Radiographic appearance detailed 8 mm of lost bone, and generalized radiolucency around the medial half of the implant. […] The area was surgically opened with a conventional trapezoidal shaped flap, and the infection and biofilm effected area was bathed in a 0.1% MB solution (sold by Vista Dental Products, Racine, Wis.) for approximately 2 minutes. The area was then irrigated with copious H2O, leaving the targeted biofilm behind, and washing away excess stain. A […] silica fiber connected to an 830 nm dental diode laser was then activated at 1200 mW and the fiber was placed in contact with biofilm and blood products and immediately carbonized. […]
# [2] = tested on: biofilm in periodontal pocket; assay: Treatment of a recalcitrant 10 mm periodontal pocket: chromophore staining plus 830 nm diode laser hot tip; conditions: one patient; for periodontal pocket probing depth: baseline 10 mm pocket, 0.1% MB solution, laser 1000 mW
# Excerpt: as §1
# Presented as a healthy […] with a recalcitrant 10 mm periodontal pocket on the facial aspect of the maxillary canine (tooth #6) after a regular dental cleaning and scaling. In a minimally invasive procedure, the patient was anesthetized with xylocaine, and the periodontal pocket was infused with 0.1% MB solution via a small bristled brush that easily fits into the volume of the pocket. The MB solution was left for approximately 2 minutes in the area, and then surface irrigation of H2O was applied.
# A […] silica fiber connected to a 830 nm dental diode laser (sold by Lumenis Technologies, Yokneam, Israel) was then activated at 1000 mW and the fiber was placed into the periodontal pocket, where it immediately came in contact with biofilm, tissue, and blood products. The tip of the fiber immediately carbonized, and became incandescent. The fiber (with the secondary quantum emissions emanating from the carbonized tip), was then moved around the three dimensional area of the periodontal pocket for a period of 30 to 45 seconds in rapid movements, never staying in one direct area for more than 1 second at a time. The area was then scaled with traditional gracey periodontal scalers (sold by Hu-Friedy Chicago, Ill.), and then irrigated with copious water. The patient was sent home with administration of 600 mg of Ibuprophen (sold by Wyeth, Madison, N.J.) analgesic given chair-side, and no antibiotics.
# [3] = tested on: periodontal and periimplant pockets and infections; assay: Procedure performed on 50 patients in periodontal and periimplant pockets and infections; conditions: 50 patients in the last 24 months, 830 nm diode laser 800 mW-1200 mW CW, 600 micron fiber
# Excerpt: as §1
structure (smiles),measurement,setting,value
CN(C)c1ccc2nc3ccc(=[N+](C)C)cc-3sc2c1 [Methylene Blue],infection status of periimplant area,"[1]; one diabetic patient, 0.1% MB solution approx. 2 minutes, laser 1200 mW 60 to 90 seconds, scaling, 5 day Amoxicillin, three weeks post-op",completely free of infection
same,infection status of periimplant area,"[1]; same patient, at 9 months",still infection free
same,state of the periodontal pocket,"[2]; 0.1% MB solution approx. 2 minutes, laser 1000 mW 30 to 45 seconds, then scaling, eight days post-op",completely closed
same,periodontal pocket probing depth,[2]; at four months,3 mm
same,periodontal pocket probing depth,[2]; at six weeks,3 mm
same,clinical outcome,[3],successful outcomes
Cc1cc2nc3ccc(N(C)C)cc3[s+]c2cc1N.[Cl-] [Toludine Blue],clinical outcome,[3],successful outcomes
